We go through 2 compounds from PubChem BioAssay AID1963870 (Molecular Pharmacology Branch, DTP, NCI, 2024).

The assay concerns 292921-168-R-J2-PDC KRAS tumor spheroid viability. Briefly: Anticancer human tumor 292921-168-R-J2-PDC patient-derived pancreatic carcinoma cell line growth inhibition [KRAS2]. The conditions noted are these: spheroids with HUVEC and MSC; for viability, T/C: stronger effect = lower value. From the text:
Multicellular complex tumor spheroid response to RAS pathway inhibitors in combination with a targeted agents in patient-derived cell lines with oncogenic KRAS variants from multiple cancer types
A high-throughput screen of multi-cell type tumor spheroids was designed to identify active combinations of targeted small molecules and KRAS pathway inhibitors. Complex spheroids include a stromal component modeled by human endothelial cells (HUVEC) and fibroblasts modeled by human mesenchymal stem cells (MSCs). The concentration ranges selected for each drug and investigational agent were based upon clinically achievable concentrations if the clinical Cmax of the agent was known.
Compounds. The drugs and investigational agents: BI-3406 (NSC825286), BAY-293 (NSC824723), batoprotafib (TNO155; NSC825523), sotorasib (AMG 510; NSC818433), MRTX1257 (NSC819558), elimusertib (BAY 1895344; NSC800525), molibresib (GSK525762; NSC774829), temuterkib (LY3214996; NSC803410), venetoclax (NSC766270), alisertib (NSC759677), olaparib (NSC753686), talazoparib (NSC767125), erdafitinib (NSC781556), ipatasertib (NSC767898), cabozantinib (NSC761068), nintedanib (NSC756659), abemaciclib (NSC768073), docetaxel (NSC628503), trametinib (NSC758246), and sapanisertib (NSC764658) were obtained from the National Cancer Institute (NCI) Developmental Therapeutics Program Chemical Repository. The FDA-approved anticancer drug set is available from the Developmental Therapeutics Program. […] The stock solutions were prepared in dimethyl sulfoxide (DMSO, Sigma-Aldrich, St. Louis, MO, cat. D2650) at 800-fold the tested concentration and stored at -70 degrees C prior to their use. All drugs and investigational agents were tested over a range starting from a high concentration at or near the clinical Cmax and decreasing in half-log increments. If the clinical Cmax for an agent had not been determined, the highest concentration tested was 10 microM.
Cell Culture. All cells were maintained in an incubator at 37 degrees C and 5% CO2 with 95% humidity. The PDC lines were cultured according to standard operating procedures established by the NCI PDMR (https://pdmr.cancer.gov/sops/default.htm). Briefly, all PDCs were thawed and cultured in Matrigel-coated flasks prepared with a working solution of 1X Ham's F-12 nutrient mix, without supplementation (Invitrogen, Waltham, MA, cat. 11765054), 100 U/mL penicillin-streptomycin (Invitrogen, cat. 15140122), and 2.5% Matrigel (Corning Inc., Corning, NY, cat. 354248) for the first three passages. All PDCs were cultured in complete DMEM/F-12 media containing advanced DMEM/F-12 (Invitrogen, cat. 12634028), 4.9% defined fetal bovine serum, heat inactivated (HyClone Laboratories Inc., Logan, UT, cat. SH30070.03HI), 389 ng/mL hydrocortisone (Sigma-Aldrich, cat. H4001), 9.7 ng/mL human EGF recombinant protein (Invitrogen, cat. PHG0313), 23.4 microg/mL adenine (Sigma-Aldrich, cat. A2786), 97.3 U/mL penicillin-streptomycin (Invitrogen, cat. 15140122), 1.9 mM L-glutamine (Invitrogen, cat. 25030081), and 9.7 microM Y-27632 dihydrochloride (Tocris Bioscience, Bristol, United Kingdom, cat. 1254). The PDCs were cultured in complete DMEM/F12 media without 9.7 microM Y-27632 dihydrochloride for at least two passages prior to the screen. The established cell line HOP-62 was cultured in RPMI 1640 medium, HEPES (Invitrogen, cat. 22400105) with 10% defined fetal bovine serum (HyClone Laboratories Inc., cat. SH30070.03) and 2 mM L-glutamine (Invitrogen, cat. 25030081). The pooled donor HUVEC were cultured in endothelial cell growth medium 2 (PromoCell, Heidelberg, Germany, cat. C-22011) and the hMSC were cultured in mesenchymal stem cell growth medium 2 (PromoCell, cat. C-28009). For all experiments, HUVEC and hMSC were used at passages </=5, while the malignant cell lines were used at passages </=15. […]
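Also: drug exposure lasted seven days after spheroids formed for three days.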
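For viability, T/C in this document: percent of DMSO vehicle control viability which is 100%.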

For `COc1cc2nccc(Oc3ccc(NC(=O)C4(C(=O)Nc5ccc(F)cc5)CC4)cc3)c2cc1OC` + C=CC(=O)N1CCN(c2nc(OCC3CCCN3C)nc3c2CCN(c2cccc4cccc(C)c24)C3)CC1CC#N, the IC50 runs as follows: (curve of first compound, second compound 0.0316 µM) 2.06 µM; (curve of first compound, second compound 0.1 µM) 1.71 µM; (curve of first compound, second compound 0.316 µM) 1.31 µM; (curve of first compound, second compound 1 µM) below 0.0316 µM; (curve of first compound, second compound 3.16 µM) below 0.0316 µM. Moreover, the viability, T/C by setting is: (second compound 0.0316 µM, first compound 0.0316 µM) 100%; (second compound 0.0316 µM, first compound 0.1 µM) 90.4%; (second compound 0.0316 µM, first compound 0.316 µM) 94.2%; (second compound 0.0316 µM, first compound 1 µM) 77.1%; (second compound 0.0316 µM, first compound 3.16 µM) 33.9%; (second compound 0.0316 µM, first compound 10 µM) 15.6%. Besides, the viability, T/C is 89.8% (second compound 0.1 µM, first compound 0.0316 µM); 83.9% (second compound 0.1 µM, first compound 0.1 µM); 84.4% (second compound 0.1 µM, first compound 0.316 µM); 62.5% (second compound 0.1 µM, first compound 1 µM); 35.1% (second compound 0.1 µM, first compound 3.16 µM); 20.6% (second compound 0.1 µM, first compound 10 µM). In addition, the viability, T/C runs as follows: (second compound 0.316 µM, first compound 0.0316 µM) 82%; (second compound 0.316 µM, first compound 0.1 µM) 83.2%; (second compound 0.316 µM, first compound 0.316 µM) 82.4%; (second compound 0.316 µM, first compound 1 µM) 55.5%; (second compound 0.316 µM, first compound 3.16 µM) 29.2%; (second compound 0.316 µM, first compound 10 µM) 18.4%. The viability, T/C reads like this: (second compound 1 µM, first compound 0.0316 µM) 45.6%; (second compound 1 µM, first compound 0.1 µM) 39%; (second compound 1 µM, first compound 0.316 µM) 38.2%; (second compound 1 µM, first compound 1 µM) 22.9%; (second compound 1 µM, first compound 3.16 µM) 14.7%; (second compound 1 µM, first compound 10 µM) 9.84%. Also, the viability, T/C was 0.34% (second compound 3.16 µM, first compound 0.0316 µM); 0.83% (second compound 3.16 µM, first compound 0.1 µM); 0.26% (second compound 3.16 µM, first compound 0.316 µM); 0.12% (second compound 3.16 µM, first compound 1 µM); 0.1% (second compound 3.16 µM, first compound 3.16 µM); 0.15% (second compound 3.16 µM, first compound 10 µM).

Turning to `CC1(C)CCC(CN2CCN(c3ccc(C(=O)NS(=O)(=O)c4ccc(NCC5CCOCC5)c([N+](=O)[O-])c4)c(Oc4cnc5[nH]ccc5c4)c3)CC2)=C(c2ccc(Cl)cc2)C1`, the viability, T/C reads like this: (compound 0.0316 µM) 102% [middle of 5 runs]; (compound 0.1 µM) 98.2% [middle of 5 runs]; (compound 0.316 µM) 95.9% [middle of 5 runs]; (compound 1 µM) 100% [middle of 5 runs]; (compound 3.16 µM) 27.2% [middle of 5 runs]; (compound 10 µM) 10.3% [middle of 5 runs]. In addition, the IC50 (curve of compound) was 2.17 µM [middle of 4 runs].

One may read the IC50 as the concentration that inhibits the measured activity by half. As a reminder, the viability, T/C is the ratio of treated to control.
